# Data as given in patent publication US20190008773A1, “MAGNETIC FIELD SENSITIVE NANO COMPLEX AND METHOD FOR MANUFACTURING THE SAME” (GWANGJU INSTITUTE OF SCIENCE AND TECHNOLOGY, priority 2017, published 2019).
# Tested on: cell
# Test: cytotoxicity in a physiological environment (FIG. 8A)
# Assay type: cell-based
# Details: no alternating magnetic field
structure (smiles),measurement,value
"COc1cccc2c1C(=O)c1c(O)c3c(c(O)c1C2=O)C[C@@](O)(C(=O)CO)C[C@@H]3O[C@H]1C[C@H](N)[C@H](O)[C@H](C)O1 [free DOX, doxorubicin]",non-specific cytotoxicity,high
